The values below come from paper PMC11345841, “Exploring 2-Sulfonylpyrimidine Warheads as Acrylamide Surrogates for Targeted Covalent Inhibition: A BTK Story” (Journal of Medicinal Chemistry, 2024).

Structures are written as SMILES.

In test [1] the target is T1, wild-type BTK (Homo sapiens, UniProt Q06187). The experiment in a line: BTK in vitro activity assay (ADP-Glo, poly-Glu:Tyr phosphorylation, TCEP). The note with it: for remaining activity at 0.1 µM: read-out: Remaining BTK activity (%); for inhibition at 0.1 µM: read-out: inhibition of BTK activity. In general terms: ADP-Glo turns the ADP formed in a reaction into a luminescent signal.

Test [2] concerns the target T1, wild-type BTK. The experiment in a line: BTK in vitro activity assay in the presence of DTT vs TCEP (Figure S6). It counts as biochemical. The note with it: 100 nM compound; 2 mM DTT instead of TCEP.
Procedure: Left: activity of WT BTK in the presence of DTT (2 mM) or TCEP (1 mM)
(mean±range of duplicate determinations). Right: effect of compounds on wild type BTK
activity in the presence of TCEP or DTT. Compounds (100 nM) were pre-incubated with BTK
in the presence of TCEP or DTT for 10 min before initiating the reaction by addition of ATP.
Graphs show relative BTK kinase activity (mean±range from 2-4 determinations) relative to
DMSO control (i.e. no compound, set to 100%).

T1 sequence (Q06187 whole entry): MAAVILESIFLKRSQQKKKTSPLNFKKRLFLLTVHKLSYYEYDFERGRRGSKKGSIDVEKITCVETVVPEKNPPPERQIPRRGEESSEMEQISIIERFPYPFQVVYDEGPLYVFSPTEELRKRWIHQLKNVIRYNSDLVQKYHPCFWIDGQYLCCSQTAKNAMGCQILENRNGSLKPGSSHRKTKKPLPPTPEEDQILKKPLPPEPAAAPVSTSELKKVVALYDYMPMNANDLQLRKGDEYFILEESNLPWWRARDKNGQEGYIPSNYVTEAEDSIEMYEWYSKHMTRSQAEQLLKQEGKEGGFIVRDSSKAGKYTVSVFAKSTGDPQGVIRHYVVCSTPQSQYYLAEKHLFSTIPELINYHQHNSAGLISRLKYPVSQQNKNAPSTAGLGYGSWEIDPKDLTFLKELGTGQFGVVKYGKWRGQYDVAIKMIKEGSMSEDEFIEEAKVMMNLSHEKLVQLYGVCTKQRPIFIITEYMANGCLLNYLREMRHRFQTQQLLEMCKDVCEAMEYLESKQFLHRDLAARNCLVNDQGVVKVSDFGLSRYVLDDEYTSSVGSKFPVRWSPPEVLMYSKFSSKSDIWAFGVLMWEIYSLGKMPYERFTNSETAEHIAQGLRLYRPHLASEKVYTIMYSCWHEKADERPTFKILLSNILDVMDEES

One may read the remaining activity as the signal under treatment as a percentage of the control signal. For `CSc1ncc(C)c(N2CCCC(n3nc(-c4ccc(Oc5ccccc5)cc4)c4c(N)ncnc43)C2)n1` (stereo not drawn) [Compound 7a, 1-(1-(5-Methyl-2-(methylthio)pyrimidin-4-yl)piperidin-3-yl)-3-(4-phenoxyphenyl)-1H-pyrazolo[3,4-d]pyrimidin-4-amine], the remaining activity at 0.1 µM in test [1] is 40 ± 0.3%.

For `CSc1ncc(C(=O)N2CCC[C@@H](n3nc(-c4ccc(Oc5ccccc5)cc4)c4c(N)ncnc43)C2)cn1` [Compound 4e, (R)-(3-(4-Amino-3-(4-phenoxyphenyl)-1H-pyrazolo[3,4-d]pyrimidin-1-yl)piperidin-1-yl)(2-(methylthio)pyrimidin-5-yl)methanone], the remaining activity at 0.1 µM in test [1] came out at 83 ± 9%. By inhibition is commonly meant the relative decrease from the control value, in per cent. Take `Nc1ncnc2c1c(-c1ccc(Oc3ccccc3)cc1)nn2C1CCCN(C(=O)c2cnc(S(=O)(=O)c3ccccc3)nc2)C1` (stereo in doubt) [Compound 5g, (R)-(3-(4-Amino-3-(4-phenoxyphenyl)-1H-pyrazolo[3,4-d]pyrimidin-1-yl)piperidin-1-yl)(2-(phenylsulfonyl)pyrimidin-5-yl)methanone]: in test [1], the remaining activity at 0.1 µM is 35 ± 1% and the inhibition at 0.1 µM fell in the range of 40 to 60%. As to `CCCCS(=O)(=O)c1ncc(C(=O)N2CCCC(n3nc(-c4ccc(Oc5ccccc5)cc4)c4c(N)ncnc43)C2)cn1` (stereo in doubt) [Compound 5f, (R)-(3-(4-Amino-3-(4-phenoxyphenyl)-1H-pyrazolo[3,4-d]pyrimidin-1-yl)piperidin-1-yl)(2-(butylsulfonyl)pyrimidin-5-yl)methanone], in test [1], the remaining activity at 0.1 µM came to 38 ± 2% and the inhibition at 0.1 µM lay in the range of 40 to 60%. With `CSc1nccc(C(=O)N2CCC[C@@H](n3nc(-c4ccc(Oc5ccccc5)cc4)c4c(N)ncnc43)C2)n1` [Compound 4a, (R)-(3-(4-Amino-3-(4-phenoxyphenyl)-1H-pyrazolo[3,4-d]pyrimidin-1-yl)piperidin-1-yl)(2-(methylthio)pyrimidin-4-yl)methanone], the remaining activity at 0.1 µM in test [1] amounted to 84 ± 8%. Regarding `CCCCS(=O)(=O)c1nccc(C(=O)N2CCC[C@H](n3nc(-c4ccc(Oc5ccccc5)cc4)c4c(N)ncnc43)C2)n1` [Compound 5b, (3-(4-Amino-3-(4-phenoxyphenyl)-1H-pyrazolo[3,4-d]pyrimidin-1-yl)piperidin-1-yl)(2-(butylsulfonyl)pyrimidin-4-yl)methanone], in test [1], the remaining activity at 0.1 µM was 58 ± 3% and the inhibition at 0.1 µM lay within 40 to 60%. `CS(=O)(=O)c1ncc(Cl)c(C(=O)N2CCCC(n3nc(-c4ccc(Oc5ccccc5)cc4)c4c(N)ncnc43)C2)n1` (stereo in doubt) [Compound 5d, (R)-(3-(4-Amino-3-(4-phenoxyphenyl)-1H-pyrazolo[3,4-d]pyrimidin-1-yl)piperidin-1-yl)(5-chloro-2-(methylsulfonyl)pyrimidin-4-yl)methanone]: the “BTK inhibition in the presence of DTT” value in test [2] is recorded as “almost no inhibition”. In test [1], the remaining activity at 0.1 µM amounted to 17 ± 2% and the inhibition at 0.1 µM fell in the range of 80 to 90%.

For the compound `Nc1ncnc2c1c(-c1ccc(Oc3ccccc3)cc1)nn2[C@@H]1CCCN(C(=O)c2cnc(Sc3ccccc3)nc2)C1` [Compound 4g, (R)-(3-(4-Amino-3-(4-phenoxyphenyl)-1H-pyrazolo[3,4-d]pyrimidin-1-yl)piperidin-1-yl)(2-(phenylthio)pyrimidin-5-yl)methanone], in test [1], the remaining activity at 0.1 µM came to 100 ± 6%. `Nc1ncnc2c1c(-c1ccc(Oc3ccccc3)cc1)nn2[C@@H]1CCCN(C(=O)c2ccncn2)C1` [Compound 12a, (R)-(3-(4-Amino-3-(4-phenoxyphenyl)-1H-pyrazolo[3,4-d]pyrimidin-1-yl)piperidin-1-yl)(pyrimidin-4-yl)methanone]: the remaining activity at 0.1 µM in test [1] was 53 ± 2%. Still for that read-out and setting: in the case of `COC(=O)c1cnc(SC)nc1N1CCC[C@@H](n2nc(-c3ccc(Oc4ccccc4)cc3)c3c(N)ncnc32)C1` [Compound 7b, Methyl (R)-4-(3-(4-Amino-3-(4-phenoxyphenyl)-1H-pyrazolo[3,4-d]pyrimidin-1-yl)piperidin-1-yl)-2-(methylthio)pyrimidine-5-carboxylate] it was 76 ± 2%. Same read-out and setting: in the case of `Nc1ncnc2c1c(-c1ccc(Oc3ccccc3)cc1)nn2[C@@H]1CCCN(C(=O)c2ccccc2)C1` [Compound 10, (R)-(3-(4-Amino-3-(4-phenoxyphenyl)-1H-pyrazolo[3,4-d]pyrimidin-1-yl)piperidin-1-yl)(phenyl)methanone] it was 100 ± 0.2%.

With `Nc1ncnc2c1c(-c1ccc(Oc3ccccc3)cc1)nn2[C@@H]1CCCN(C(=O)c2cncnc2)C1` [Compound 12b, (R)-(3-(4-Amino-3-(4-phenoxyphenyl)-1H-pyrazolo[3,4-d]pyrimidin-1-yl)piperidin-1-yl)(pyrimidin-5-yl)methanone], the remaining activity at 0.1 µM in test [1] was 83 ± 7%.

`CNC(=O)c1cnc(SC)nc1N1CCCC(n2nc(-c3ccc(Oc4ccccc4)cc3)c3c(N)ncnc32)C1` (stereo not drawn) [Compound 7d, 4-(3-(4-Amino-3-(4-phenoxyphenyl)-1H-pyrazolo[3,4-d]pyrimidin-1-yl)piperidin-1-yl)-N-methyl-2-(methylthio)pyrimidine-5-carboxamide]: the remaining activity at 0.1 µM in test [1] stood at 78 ± 2%. For `CS(=O)(=O)c1ncc(C(=O)N2CCCC(n3nc(-c4ccc(Oc5ccccc5)cc4)c4c(N)ncnc43)C2)cn1` (stereo in doubt) [Compound 5e, (R)-(3-(4-Amino-3-(4-phenoxyphenyl)-1H-pyrazolo[3,4-d]pyrimidin-1-yl)piperidin-1-yl)(2-(methylsulfonyl)pyrimidin-5-yl)methanone], in test [1], the remaining activity at 0.1 µM is 9 ± 2% and the inhibition at 0.1 µM lay in the range of 80 to 90%.

For the compound `CCOC(=O)c1cnc(SC)nc1N1CCC[C@@H](n2nc(-c3ccc(Oc4ccccc4)cc3)c3c(N)ncnc32)C1` [Compound 7c, Ethyl (R)-4-(3-(4-Amino-3-(4-phenoxyphenyl)-1H-pyrazolo[3,4-d]pyrimidin-1-yl)piperidin-1-yl)-2-(methylthio)pyrimidine-5-carboxylate], the remaining activity at 0.1 µM in test [1] stood at 105 ± 4%.

Take `CCCCSc1nccc(C(=O)N2CCC[C@@H](n3nc(-c4ccc(Oc5ccccc5)cc4)c4c(N)ncnc43)C2)n1` [Compound 4b, (R)-(3-(4-Amino-3-(4-phenoxyphenyl)-1H-pyrazolo[3,4-d]pyrimidin-1-yl)piperidin-1-yl)(2-(butylthio)pyrimidin-4-yl)methanone]: in test [1], the remaining activity at 0.1 µM is 82 ± 1%. In the case of `CSc1ncc(Cl)c(C(=O)N2CCC[C@@H](n3nc(-c4ccc(Oc5ccccc5)cc4)c4c(N)ncnc43)C2)n1` [Compound 4d, (R)-(3-(4-Amino-3-(4-phenoxyphenyl)-1H-pyrazolo[3,4-d]pyrimidin-1-yl)piperidin-1-yl)(5-chloro-2-(methylthio)pyrimidin-4-yl)methanone], in test [1], the remaining activity at 0.1 µM was 100 ± 6%. With `CCCCSc1ncc(C(=O)N2CCC[C@@H](n3nc(-c4ccc(Oc5ccccc5)cc4)c4c(N)ncnc43)C2)cn1` [Compound 4f, (R)-(3-(4-Amino-3-(4-phenoxyphenyl)-1H-pyrazolo[3,4-d]pyrimidin-1-yl)piperidin-1-yl)(2-(butylthio)pyrimidin-5-yl)methanone], the remaining activity at 0.1 µM in test [1] is 84 ± 5%.

Turning to `CS(=O)(=O)c1nccc(C(=O)N2CCCC(n3nc(-c4ccc(Oc5ccccc5)cc4)c4c(N)ncnc43)C2)n1` (stereo in doubt) [Compound 5a, (R)-(3-(4-Amino-3-(4-phenoxyphenyl)-1H-pyrazolo[3,4-d]pyrimidin-1-yl)piperidin-1-yl)(2-(methylsulfonyl)pyrimidin-4-yl)methanone], in test [1], the remaining activity at 0.1 µM was determined as 17 ± 1% and the inhibition at 0.1 µM was 80 to 90%. In the case of `Cc1nc(S(C)(=O)=O)ncc1N1CCCC(n2nc(-c3ccc(Oc4ccccc4)cc3)c3c(N)ncnc32)C1` (stereo not drawn) [Compound 9a, 1-(1-(4-Methyl-2-(methylsulfonyl)pyrimidin-5-yl)piperidin-3-yl)-3-(4-phenoxyphenyl)-1H-pyrazolo[3,4-d]pyrimidin-4-amine], the remaining activity at 0.1 µM in test [1] amounted to 80 ± 3%. On the same count and under the same terms, next, `CSc1ncc(N2CCCC(n3nc(-c4ccc(Oc5ccccc5)cc4)c4c(N)ncnc43)C2)c(C)n1` (stereo not drawn) [Compound 7e, 1-(1-(4-Methyl-2-(methylthio)pyrimidin-5-yl)piperidin-3-yl)-3-(4-phenoxyphenyl)-1H-pyrazolo[3,4-d]pyrimidin-4-amine]: 69 ± 2%. Regarding `Nc1ncnc2c1c(-c1ccc(Oc3ccccc3)cc1)nn2[C@H]1CCCN(C(=O)c2ccnc(S(=O)(=O)c3ccccc3)n2)C1` [Compound 5c, (3-(4-Amino-3-(4-phenoxyphenyl)-1H-pyrazolo[3,4-d]pyrimidin-1-yl)piperidin-1-yl)(2-(phenylsulfonyl)pyrimidin-4-yl)methanone], in test [1], the remaining activity at 0.1 µM is 40 ± 1% and the inhibition at 0.1 µM fell in the range of 40 to 60%. On to `CS(=O)(=O)c1nccc(N2CCC[C@@H](n3nc(-c4ccc(Oc5ccccc5)cc4)c4c(N)ncnc43)C2)n1` [Compound 8e, (R)-1-(1-(2-(Methylsulfonyl)pyrimidin-4-yl)piperidin-3-yl)-3-(4-phenoxyphenyl)-1H-pyrazolo[3,4-d]pyrimidin-4-amine], for which, in test [1], the remaining activity at 0.1 µM came to 48 ± 0.3%. Turning to `CS(=O)(=O)c1ncc(N2CCC[C@@H](n3nc(-c4ccc(Oc5ccccc5)cc4)c4c(N)ncnc43)C2)cn1` [Compound 9b, (R)-1-(1-(2-(Methylsulfonyl)pyrimidin-5-yl)piperidin-3-yl)-3-(4-phenoxyphenyl)-1H-pyrazolo[3,4-d]pyrimidin-4-amine], the remaining activity at 0.1 µM in test [1] amounted to 103 ± 5%. On the same count and under the same terms, next, `Nc1ncnc2c1c(-c1ccc(Oc3ccccc3)cc1)nn2[C@@H]1CCCN(C(=O)c2ccnc(Sc3ccccc3)n2)C1` [Compound 4c, (R)-(3-(4-Amino-3-(4-phenoxyphenyl)-1H-pyrazolo[3,4-d]pyrimidin-1-yl)piperidin-1-yl)(2-(phenylthio)pyrimidin-4-yl)methanone]: 98 ± 5%.
